In ChEMBL document CHEMBL1201861, “Genomics of Drug Sensitity in Cancer screening data, Wellcome Trust Sanger Institute”:

Experiments:
Experiment in all cases: cells
[1] = system: NCI-H2171; format: functional, cell-based; settings: Homo sapiens;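 also: growth inhibition of human NCI-H2171 cells, read out by a cell viability assay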
Description: SANGER: Inhibition of human NCI-H2171 cell growth in a cell viability assay.

[2] = system: BPH-1; format: functional, cell-based; settings: Homo sapiens;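 also: cell viability assay measuring growth inhibition of human BPH-1 cells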
Description: SANGER: Inhibition of human BPH-1 cell growth in a cell viability assay.

[3] = system: MC-CAR; format: functional, cell-based; settings: Homo sapiens;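 also: growth inhibition of the human MC-CAR cell line, read out by a cell viability assay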
Description: SANGER: Inhibition of human MC-CAR cell growth in a cell viability assay.

[4] = system: MONO-MAC-6; format: functional, cell-based; settings: Homo sapiens;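 also: cell viability assay measuring growth inhibition of human MONO-MAC-6 cells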
Description: SANGER: Inhibition of human MONO-MAC-6 cell growth in a cell viability assay.

[5] = system: Hs-578T; format: functional, cell-based; settings: Homo sapiens
Description: SANGER: Inhibition of human Hs-578-T cell growth in a cell viability assay.

[6] = system: GCT; format: functional, cell-based; settings: Homo sapiens;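 also: GCT cell line proliferation inhibition, read out with a cell viability assay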
Description: SANGER: Inhibition of human GCT cell growth in a cell viability assay.

[7] = system: NCI-H2228; format: functional, cell-based; settings: Homo sapiens;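 also: growth inhibition of human NCI-H2228 cells, read out by a cell viability assay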
Description: SANGER: Inhibition of human NCI-H2228 cell growth in a cell viability assay.

[8] = system: IST-SL2; format: functional, cell-based; settings: Homo sapiens;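 also: growth inhibition of human IST-SL2 cells, read out by a cell viability assay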
Description: SANGER: Inhibition of human IST-SL2 cell growth in a cell viability assay.

[9] = system: RO82-W-1; format: functional, cell-based; settings: Homo sapiens;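 also: growth inhibition of human RO82-W-1 cells, measured with a cell viability assay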
Description: SANGER: Inhibition of human RO82-W-1 cell growth in a cell viability assay.

[10] = system: UMUC3; format: functional, cell-based; settings: Homo sapiens;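 also: growth inhibition of human UM-UC-3 cells, read out with a cell viability assay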
Description: SANGER: Inhibition of human UM-UC-3 cell growth in a cell viability assay.

[11] = system: SK-MES-1; format: functional, cell-based; settings: Homo sapiens;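 also: growth inhibition of human SK-MES-1 cells, read out with a cell viability assay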
Description: SANGER: Inhibition of human SK-MES-1 cell growth in a cell viability assay.

[12] = system: HCC1806; format: functional, cell-based; settings: Homo sapiens;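 also: growth inhibition of the cancer cell line, determined with a cell viability assay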
Description: SANGER: Inhibition of human HCC1806 cell growth in a cell viability assay.

[13] = system: LB647-SCLC; format: functional, cell-based; settings: Homo sapiens;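 also: cell growth inhibition, read out by a viability assay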
Description: SANGER: Inhibition of human LB647-SCLC cell growth in a cell viability assay.

[14] = system: ABC-1; format: functional, cell-based; settings: Homo sapiens;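 also: growth inhibition of human ABC-1 cells, read out by a cell viability assay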
Description: SANGER: Inhibition of human ABC-1 cell growth in a cell viability assay.

[15] = system: KYSE-180; format: functional, cell-based; settings: Homo sapiens;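 also: growth inhibition of KYSE-180 cells, read out with a cell viability assay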
Description: SANGER: Inhibition of human KYSE-180 cell growth in a cell viability assay.

[16] = system: ChaGo-K-1; format: functional, cell-based; settings: Homo sapiens;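 also: growth inhibition of ChaGo-K-1 cells, read out with a cell viability assay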
Description: SANGER: Inhibition of human ChaGo-K-1 cell growth in a cell viability assay.

[17] = system: CAL-27; format: functional, cell-based; settings: Homo sapiens;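 also: Viability-based readout, IC50 reflecting inhibition of CAL-27 cell growth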
Description: SANGER: Inhibition of human CAL-27 cell growth in a cell viability assay.

[18] = system: NCI-H322M; format: functional, cell-based; settings: Homo sapiens;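 also: cell viability assay measuring inhibition of growth of human NCI-H322M cells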
Description: SANGER: Inhibition of human NCI-H322M cell growth in a cell viability assay.

[19] = system: KYSE-70 cell line; format: functional, cell-based; settings: Homo sapiens;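 also: cell viability assay read-out, with IC50 expressing suppression of KYSE-70 cell growth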
Description: SANGER: Inhibition of human KYSE-70 cell growth in a cell viability assay.

[20] = system: A204; format: functional, cell-based; settings: Homo sapiens;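 also: growth inhibition of human A204 cells, read out with a cell viability assay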
Description: SANGER: Inhibition of human A204 cell growth in a cell viability assay.

[21] = system: LCLC-97TM1; format: functional, cell-based; settings: Homo sapiens;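 also: cell viability assay measuring growth inhibition of human LCLC-97TM1 cells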
Description: SANGER: Inhibition of human LCLC-97TM1 cell growth in a cell viability assay.

[22] = system: GAMG; format: functional, cell-based; settings: Homo sapiens;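 also: cell growth inhibition measured by a viability assay in the GAMG human cell line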
Description: SANGER: Inhibition of human GAMG cell growth in a cell viability assay.

[23] = system: COLO-741; format: functional, cell-based; settings: Homo sapiens
Description: SANGER: Inhibition of human COLO-741 cell growth in a cell viability assay.

[24] = system: HT-1080; format: functional, cell-based; settings: Homo sapiens
Description: SANGER: Inhibition of human HT-1080 cell growth in a cell viability assay.

[25] = system: NCI-H1563; format: functional, cell-based; settings: Homo sapiens;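 also: growth inhibition of human NCI-H1563 cells, read out with a cell viability assay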
Description: SANGER: Inhibition of human NCI-H1563 cell growth in a cell viability assay.

[26] = system: YT; format: functional, cell-based; settings: Homo sapiens
Description: SANGER: Inhibition of human YT cell growth in a cell viability assay.

[27] = system: NCI-H520; format: functional, cell-based; settings: Homo sapiens;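 also: growth inhibition of NCI-H520 cells, measured by a cell viability assay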
Description: SANGER: Inhibition of human NCI-H520 cell growth in a cell viability assay.

[28] = system: PANC-08-13; format: functional, cell-based; settings: Homo sapiens;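 also: cell growth inhibition, measured with a cell viability assay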
Description: SANGER: Inhibition of human PANC-08-13 cell growth in a cell viability assay.

[29] = system: HCC1395; format: functional, cell-based; settings: Homo sapiens;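 also: growth inhibition of HCC1395 cells, read out by a cell viability assay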
Description: SANGER: Inhibition of human HCC1395 cell growth in a cell viability assay.

[30] = system: MKN-7; format: functional, cell-based; settings: Homo sapiens;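 also: growth inhibition of MKN-7 cells, read out with a cell viability assay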
Description: SANGER: Inhibition of human MKN7 cell growth in a cell viability assay.

[31] = system: COR-L105; format: functional, cell-based; settings: Homo sapiens;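 also: cell growth inhibition determined with a viability assay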
Description: SANGER: Inhibition of human COR-L105 cell growth in a cell viability assay.

[32] = system: HT1197; format: functional, cell-based, HT-1197; settings: Homo sapiens
Description: SANGER: Inhibition of human HT-1197 cell growth in a cell viability assay.

[33] = system: Panc1005; format: functional, cell-based; settings: Homo sapiens;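 also: growth inhibition of human PANC-10-05 cells, measured by a cell viability assay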
Description: SANGER: Inhibition of human PANC-10-05 cell growth in a cell viability assay.

[34] = system: CWR22R; format: functional, cell-based; settings: Homo sapiens, 22Rv1;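 also: growth inhibition of 22Rv1 cells, read out with a cell viability assay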
Description: SANGER: Inhibition of human 22RV1 cell growth in a cell viability assay.

[35] = system: UMC-11; format: functional, cell-based; settings: Homo sapiens;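 also: growth inhibition of UMC-11 cells, read out with a cell viability assay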
Description: SANGER: Inhibition of human UMC-11 cell growth in a cell viability assay.

[36] = system: D-336MG; format: functional, cell-based; settings: Homo sapiens
Description: SANGER: Inhibition of human D-336MG cell growth in a cell viability assay.

[37] = system: HGC-27; format: functional, cell-based; settings: Homo sapiens;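 also: growth inhibition of human HGC-27 cells, read out in a cell viability assay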
Description: SANGER: Inhibition of human HGC-27 cell growth in a cell viability assay.

[38] = system: T-24; format: functional, cell-based; settings: Homo sapiens;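 also: growth inhibition of T-24 cells, read out with a cell viability assay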
Description: SANGER: Inhibition of human T-24 cell growth in a cell viability assay.

[39] = system: LU-165; format: functional, cell-based; settings: Homo sapiens
Description: SANGER: Inhibition of human LU-165 cell growth in a cell viability assay.

[40] = system: MeWo; format: functional, cell-based; settings: Homo sapiens;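 also: growth inhibition of MeWo cells, determined by a cell viability readout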
Description: SANGER: Inhibition of human Mewo cell growth in a cell viability assay.

[41] = system: NY; format: functional, cell-based; settings: Homo sapiens
Description: SANGER: Inhibition of human NY cell growth in a cell viability assay.

[42] = system: FTC-133; format: functional, cell-based; settings: Homo sapiens
[43] = system: Capan-2; format: functional, cell-based; settings: Homo sapiens;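 also: Capan-2 cell growth inhibition, read out with a viability assay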
Description: SANGER: Inhibition of human Capan-2 cell growth in a cell viability assay.

[44] = system: NB12; format: functional, cell-based; settings: Homo sapiens;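 also: growth inhibition of human NB12 cells, read out by a cell viability assay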
Description: SANGER: Inhibition of human NB12 cell growth in a cell viability assay.

[45] = system: BFTC-905; format: functional, cell-based; settings: Homo sapiens
Description: SANGER: Inhibition of human BFTC-905 cell growth in a cell viability assay.

[46] = system: FaDu; format: functional, cell-based; settings: Homo sapiens;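 also: cell viability readout of growth inhibition in FaDu cells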
Description: SANGER: Inhibition of human FADU cell growth in a cell viability assay.

[47] = system: UACC-62; format: functional, cell-based; settings: Homo sapiens;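 also: growth inhibition of human UACC-62 cells, read out by a cell viability assay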
Description: SANGER: Inhibition of human UACC-62 cell growth in a cell viability assay.

[48] = system: MDA-MB-157; format: functional, cell-based; settings: Homo sapiens
Description: SANGER: Inhibition of human MDA-MB-157 cell growth in a cell viability assay.

[49] = system: MKN-45; format: functional, cell-based; settings: Homo sapiens;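 also: growth inhibition of human MKN-45 cells, measured with a cell viability assay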
Description: SANGER: Inhibition of human MKN45 cell growth in a cell viability assay.

[50] = system: Ca9-22; format: functional, cell-based; settings: Homo sapiens;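 also: growth inhibition of Ca9-22 cells, read out with a cell viability assay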
Description: SANGER: Inhibition of human Ca9-22 cell growth in a cell viability assay.

[51] = system: SW1783; format: functional, cell-based; settings: Homo sapiens;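 also: cell growth inhibition measured with a viability assay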
Description: SANGER: Inhibition of human SW1783 cell growth in a cell viability assay.

[52] = system: OE19; format: functional, cell-based; settings: Homo sapiens;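 also: growth inhibition of OE19 cells, measured through a cell viability read-out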
Description: SANGER: Inhibition of human OE19 cell growth in a cell viability assay.

[53] = system: NCI-H345; format: functional, cell-based; settings: Homo sapiens;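 also: growth inhibition of NCI-H345 cells measured with a cell viability assay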
Description: SANGER: Inhibition of human NCI-H345 cell growth in a cell viability assay.

[54] = system: LoVo; format: functional, cell-based; settings: Homo sapiens;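 also: growth inhibition of human LoVo cells, read out with a cell viability assay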
Description: SANGER: Inhibition of human LoVo cell growth in a cell viability assay.

[55] = system: MHH-ES-1; format: functional, cell-based; settings: Homo sapiens;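 also: cell growth inhibition measured by a cell viability assay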
Description: SANGER: Inhibition of human MHH-ES-1 cell growth in a cell viability assay.

[56] = system: HCC1599; format: functional, cell-based; settings: Homo sapiens;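 also: growth inhibition of HCC1599 cells, read out in a cell viability assay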
Description: SANGER: Inhibition of human HCC1599 cell growth in a cell viability assay.

[57] = system: LCLC-103H cell line; format: functional, cell-based; settings: Homo sapiens
Description: SANGER: Inhibition of human LCLC-103H cell growth in a cell viability assay.

[58] = system: OE33; format: functional, cell-based; settings: Homo sapiens;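 also: growth inhibition of human OE33 cells, measured by a cell viability assay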
Description: SANGER: Inhibition of human OE33 cell growth in a cell viability assay.

[59] = system: SCC-25; format: functional, cell-based; settings: Homo sapiens;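 also: growth inhibition of SCC-25 cells, measured with a cell viability assay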
Description: SANGER: Inhibition of human SCC-25 cell growth in a cell viability assay.

[60] = system: CAL-148; format: functional, cell-based; settings: Homo sapiens
Description: SANGER: Inhibition of human CAL-148 cell growth in a cell viability assay.

[61] = system: HCC1937; format: functional, cell-based; settings: Homo sapiens;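 also: growth inhibition measured with a cell viability read-out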
Description: SANGER: Inhibition of human HCC1937 cell growth in a cell viability assay.

[62] = system: DBTRG-05MG; format: functional, cell-based; settings: Homo sapiens;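 also: cell viability assay measuring growth inhibition of human DBTRG-05MG cells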
Description: SANGER: Inhibition of human DBTRG-05MG cell growth in a cell viability assay.

Q: For Fc1cc(-c2cc[nH]/c(=N/c3ccc(-n4cnc(N5CCOCC5)n4)cc3)n2)cc(N2CCOCC2)c1, which IC50 [1] is on record?
A: The IC50 was 792 nM.

Q: What about the IC50 [2] of the same compound?
A: The IC50 was 1970 nM.

Q: And the IC50 [3]?
A: The IC50 was 380 nM.

Q: What about the IC50 [4] of the same compound?
A: Its IC50 is 544 nM.

Q: And the IC50 [5]?
A: The IC50 was > 5120 nM.

Q: And the IC50 [6]?
A: The IC50 was 204 nM.

Q: What about the IC50 [7] of the same compound?
A: Its IC50 is 527 nM.

Q: What about the IC50 [8] of the same compound?
A: Its IC50 is 457 nM.

Q: What about the IC50 [9] of the same compound?
A: Its IC50 is > 5120 nM.

Q: And the IC50 [10]?
A: The IC50 was 1270 nM.

Q: What about the IC50 [11] of the same compound?
A: The IC50 was 153 nM.

Q: What about the IC50 [12] of the same compound?
A: Its IC50 is 637 nM.

Q: And the IC50 [13]?
A: The IC50 was > 5120 nM.

Q: And the IC50 [14]?
A: The IC50 was 889 nM.

Q: What about the IC50 [15] of the same compound?
A: The IC50 was 272 nM.

Q: And the IC50 [16]?
A: Its IC50 is 1370 nM.

Q: What about the IC50 [17] of the same compound?
A: Its IC50 is 66 nM.

Q: And the IC50 [18]?
A: Its IC50 is > 5120 nM.

Q: And the IC50 [19]?
A: The IC50 was 627 nM.

Q: And the IC50 [20]?
A: Its IC50 is 165 nM.

Q: And the IC50 [21]?
A: Its IC50 is 163 nM.

Q: And the IC50 [22]?
A: The IC50 was 1340 nM.

Q: And the IC50 [23]?
A: The IC50 was > 5120 nM.

Q: And the IC50 [24]?
A: The IC50 was 428 nM.

Q: What about the IC50 [25] of the same compound?
A: Its IC50 is 320 nM.

Q: And the IC50 [26]?
A: Its IC50 is 204 nM.

Q: And the IC50 [27]?
A: Its IC50 is 467 nM.

Q: What about the IC50 [28] of the same compound?
A: Its IC50 is 90 nM.

Q: And the IC50 [29]?
A: The IC50 was 413 nM.

Q: What about the IC50 [30] of the same compound?
A: The IC50 was 3140 nM.

Q: And the IC50 [31]?
A: Its IC50 is 235 nM.

Q: What about the IC50 [32] of the same compound?
A: Its IC50 is 611 nM.

Q: What about the IC50 [33] of the same compound?
A: The IC50 was 460 nM.

Q: And the IC50 [34]?
A: Its IC50 is 1010 nM.

Q: And the IC50 [35]?
A: The IC50 was 179 nM.

Q: What about the IC50 [36] of the same compound?
A: The IC50 was 1010 nM.

Q: What about the IC50 [37] of the same compound?
A: Its IC50 is 284 nM.

Q: What about the IC50 [38] of the same compound?
A: Its IC50 is 2870 nM.

Q: And the IC50 [39]?
A: Its IC50 is 825 nM.

Q: What about the IC50 [40] of the same compound?
A: The IC50 was 199 nM.

Q: What about the IC50 [41] of the same compound?
A: Its IC50 is 623 nM.

Q: What about the IC50 [42] of the same compound?
A: Its IC50 is > 5120 nM.

Q: And the IC50 [43]?
A: Its IC50 is 1010 nM.

Q: What about the IC50 [44] of the same compound?
A: The IC50 was 383 nM.

Q: What about the IC50 [45] of the same compound?
A: The IC50 was 141 nM.

Q: What about the IC50 [46] of the same compound?
A: Its IC50 is 715 nM.

Q: What about the IC50 [47] of the same compound?
A: The IC50 was 370 nM.

Q: What about the IC50 [48] of the same compound?
A: The IC50 was 457 nM.

Q: What about the IC50 [49] of the same compound?
A: Its IC50 is 994 nM.

Q: What about the IC50 [50] of the same compound?
A: The IC50 was 389 nM.

Q: What about the IC50 [51] of the same compound?
A: Its IC50 is 428 nM.

Q: And the IC50 [52]?
A: The IC50 was 1100 nM.

Q: What about the IC50 [53] of the same compound?
A: Its IC50 is 4540 nM.

Q: What about the IC50 [54] of the same compound?
A: Its IC50 is 437 nM.

Q: What about the IC50 [55] of the same compound?
A: The IC50 was 274 nM.

Q: And the IC50 [56]?
A: The IC50 was 466 nM.

Q: And the IC50 [57]?
A: Its IC50 is 135 nM.

Q: What about the IC50 [58] of the same compound?
A: Its IC50 is 517 nM.

Q: What about the IC50 [59] of the same compound?
A: The IC50 was 196 nM.

Q: And the IC50 [60]?
A: The IC50 was 4940 nM.

Q: And the IC50 [61]?
A: The IC50 was 1230 nM.

Q: And the IC50 [62]?
A: The IC50 was 750 nM.
